Data reported in PubChem BioAssay AID248 (DTP/NCI, 2004).
“And” between values parts separate entries of the source, which are not always exact repeats. Equal values may be shown once. Toxic doses and inconclusive results are not listed. Cut-off read from the data, not from the text of the source: active = T/C of 150% or more; inactive = T/C below 125%.

Test system: L1210 leukemia ip in BDF1 mice, survival T/C
Test: NCI In Vivo Anticancer Drug Screen. Data for tumor model L1210 Leukemia (intraperitoneal) in B6D2F1 (BDF1) mice
Conditions: endpoint: mean survival time, higher = longer survival
How it was run: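 Each compound was tested against a transplantable tumor grown in mice. The endpoint was survival, with treated animals benchmarked against vehicle controls as a simple ratio.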

[1] = dose: 50.0 mg/kg/injection, schedule: Q01DX009 (ip), vehicle: Klucel (hydroxypropylcellulose) (HPC)
[2] = dose: 100.0 mg/kg/injection, schedule: Q01DX001 (ip), vehicle: carboxymethylcellulose (CMC)
[3] = dose: 200.0 mg/kg/injection, schedule: Q01DX001 (ip), vehicle: carboxymethylcellulose (CMC)
[4] = dose: 400.0 mg/kg/injection, schedule: Q01DX001 (ip), vehicle: carboxymethylcellulose (CMC)
[5] = dose: 100.0 mg/kg/injection, schedule: Q01DX001 (ip), vehicle: saline
[6] = dose: 200.0 mg/kg/injection, schedule: Q01DX001 (ip), vehicle: saline
[7] = dose: 100.0 mg/kg/injection, schedule: Q04DX003 (ip), vehicle: saline
[8] = dose: 100.0 mg/kg/injection, schedule: Q04DX003 (ip), vehicle: saline with Tween-80
[9] = dose: 200.0 mg/kg/injection, schedule: Q04DX003 (ip), vehicle: saline with Tween-80
[10] = dose: 400.0 mg/kg/injection, schedule: Q04DX003 (ip), vehicle: saline with Tween-80
[11] = dose: 100.0 mg/kg/injection, schedule: Q01DX009 (ip), vehicle: saline
[12] = dose: 100.0 mg/kg/injection, schedule: Q04DX003 (ip), vehicle: Klucel (hydroxypropylcellulose) (HPC)

Measured: T/C

Nc1nc(N)c2[nH]cnc2n1
inactive: dose: 12.5 mg/kg/injection, schedule: Q01DX Z (ip), vehicle: carboxymethylcellulose (CMC) 91 % of control | dose: 17.49 mg/kg/injection, schedule: Q01DX Z (ip), vehicle: carboxymethylcellulose (CMC) 86 % of control | dose: 25.0 mg/kg/injection, schedule: Q01DX009 (ip), vehicle: Klucel (hydroxypropylcellulose) (HPC) 111 % of control | dose: 25.0 mg/kg/injection, schedule: Q01DX Z (ip), vehicle: carboxymethylcellulose (CMC) 93 % of control | dose: 34.98 mg/kg/injection, schedule: Q01DX Z (ip), vehicle: carboxymethylcellulose (CMC) 92 % of control | dose: 44.0 mg/kg/injection, schedule: Q02DX010 (ip), vehicle: other 100 % of control | [1] 110 % of control | dose: 66.0 mg/kg/injection, schedule: Q02DX010 (ip), vehicle: other 105 % of control | dose: 69.95 mg/kg/injection, schedule: Q01DX Z (ip), vehicle: carboxymethylcellulose (CMC) 95 % of control | [2] 97 % of control | dose: 100.0 mg/kg/injection, schedule: Q01DX Z (ip), vehicle: carboxymethylcellulose (CMC) 91 % of control | dose: 100.0 mg/kg/injection, schedule: Q02DX010 (ip), vehicle: other 116 % of control | dose: 139.9 mg/kg/injection, schedule: Q01DX Z (ip), vehicle: carboxymethylcellulose (CMC) 106 % of control | dose: 150.0 mg/kg/injection, schedule: Q02DX010 (ip), vehicle: other 117 % of control | [3] 90 % of control | dose: 225.0 mg/kg/injection, schedule: Q02DX010 (ip), vehicle: other 60 % of control | [4] 97 % of control

CC(C)OC(=O)C(C)(OC(=O)c1ccccc1)c1ccccc1 (stereo not given)
inactive: [5] 94 % of control | [6] 91 % of control | dose: 400.0 mg/kg/injection, schedule: Q01DX001 (ip), vehicle: saline 88 % of control

O=C(O)C1C(C(=O)O)C2(Cl)C(Cl)=C(Cl)C1(Cl)C2(Cl)Cl.[Fe] (stereo not given)
inactive: dose: 25.0 mg/kg/injection, schedule: Q01DX009 (ip), vehicle: saline sonified 93 % of control | dose: 25.0 mg/kg/injection, schedule: Q04DX003 (ip), vehicle: saline 94 % of control | dose: 44.0 mg/kg/injection, schedule: Q01DX Z (ip), vehicle: carboxymethylcellulose (CMC) 92 % of control | dose: 50.0 mg/kg/injection, schedule: Q01DX001 (ip), vehicle: saline sonified 104 % of control | dose: 50.0 mg/kg/injection, schedule: Q01DX009 (ip), vehicle: saline sonified 93 % of control | dose: 50.0 mg/kg/injection, schedule: Q04DX003 (ip), vehicle: saline 95 % of control and 86 % of control | dose: 67.0 mg/kg/injection, schedule: Q01DX Z (ip), vehicle: carboxymethylcellulose (CMC) 91 % of control | dose: 100.0 mg/kg/injection, schedule: Q01DX001 (ip), vehicle: saline sonified 102 % of control | dose: 100.0 mg/kg/injection, schedule: Q01DX009 (ip), vehicle: saline sonified 93 % of control | [7] 103 % of control | dose: 200.0 mg/kg/injection, schedule: Q01DX001 (ip), vehicle: saline sonified 98 % of control

O=C(Nc1ccccc1)Oc1ccc(Br)cc1Br
inactive: dose: 75.0 mg/kg/injection, schedule: Q01DX001 (ip), vehicle: saline 94 % of control | dose: 150.0 mg/kg/injection, schedule: Q01DX001 (ip), vehicle: saline 89 % of control | dose: 300.0 mg/kg/injection, schedule: Q01DX001 (ip), vehicle: saline 94 % of control

O=C(CCl)NCC(NC(=O)CCl)C(=O)O (stereo not given)
inactive: dose: 100.0 mg/kg/injection, schedule: Q04DX002 (ip), vehicle: saline 115 % of control | dose: 200.0 mg/kg/injection, schedule: Q04DX002 (ip), vehicle: saline 105 % of control | dose: 400.0 mg/kg/injection, schedule: Q04DX002 (ip), vehicle: saline 112 % of control

c1ccc(C(c2ccccc2)[Si](c2ccccc2)(c2ccccc2)C(c2ccccc2)c2ccccc2)cc1
inactive: dose: 25.6 mg/kg/injection, schedule: Q04DX002 (ip), vehicle: saline with Tween-80 107 % of control | [1] 90 % of control | dose: 64.0 mg/kg/injection, schedule: Q04DX002 (ip), vehicle: saline with Tween-80 100 % of control | dose: 100.0 mg/kg/injection, schedule: Q01DX009 (ip), vehicle: Klucel (hydroxypropylcellulose) (HPC) 86 % of control | [8] 94 % of control | dose: 160.0 mg/kg/injection, schedule: Q04DX002 (ip), vehicle: saline with Tween-80 100 % of control | dose: 200.0 mg/kg/injection, schedule: Q01DX009 (ip), vehicle: Klucel (hydroxypropylcellulose) (HPC) 88 % of control | [9] 96 % of control | dose: 400.0 mg/kg/injection, schedule: Q04DX002 (ip), vehicle: saline with Tween-80 110 % of control | [10] 91 % of control

c1ccc(C(CN2CCCCC2)c2ccccc2)cc1
inactive: dose: 44.0 mg/kg/injection, schedule: Q01DX Z (ip), vehicle: methylcellulose (MC) 93 % of control | dose: 66.0 mg/kg/injection, schedule: Q01DX Z (ip), vehicle: methylcellulose (MC) 96 % of control | dose: 100.0 mg/kg/injection, schedule: Q01DX Z (ip), vehicle: methylcellulose (MC) 105 % of control

O=C(O)c1ccc2c3c(ccc([N+](=O)[O-])c13)C=C2
inactive: [8] 96 % of control | [9] 94 % of control | [10] 103 % of control

CCS(=O)(=O)c1ccc(C(=O)N=[N+]=[N-])cc1
inactive: [2] 92 % of control | [3] 97 % of control | [4] 105 % of control

COc1cc(CC(=O)C(=O)O)oc(=O)c1
inactive: [8] 102 % of control | [9] 95 % of control | [10] 98 % of control

CN(C)CCNC(=O)N(C)C
inactive: [11] 95 % of control | [7] 92 % of control | dose: 200.0 mg/kg/injection, schedule: Q01DX009 (ip), vehicle: saline 98 % of control | dose: 200.0 mg/kg/injection, schedule: Q04DX003 (ip), vehicle: saline 100 % of control | dose: 400.0 mg/kg/injection, schedule: Q01DX009 (ip), vehicle: saline 102 % of control | dose: 400.0 mg/kg/injection, schedule: Q04DX003 (ip), vehicle: saline 97 % of control

CC1(C)N=C(N)N=C(N)N1c1cccc(OCCCOc2ccc(NC(=O)CBr)cc2)c1
inactive: dose: 45.0 mg/kg/injection, schedule: Q01DX009 (ip), vehicle: saline 104 % of control | dose: 67.0 mg/kg/injection, schedule: Q01DX009 (ip), vehicle: saline 104 % of control | [5] 110 % of control | [11] 102 % of control | [6] 97 % of control

N=C(N)SCCCSC(=N)N
inactive: dose: 25.0 mg/kg/injection, schedule: Q04DX003 (ip), vehicle: Klucel (hydroxypropylcellulose) (HPC) 95 % of control | dose: 50.0 mg/kg/injection, schedule: Q04DX003 (ip), vehicle: Klucel (hydroxypropylcellulose) (HPC) 97 % of control | [11] 102 % of control | [12] 97 % of control and 98 % of control

c1ccc(-c2ccc(-c3cnc(-c4ccccc4)[nH]3)cc2)cc1
inactive: dose: 100.0 mg/kg/injection, schedule: Q01DX001 (ip), vehicle: saline with Tween-80 95 % of control | dose: 200.0 mg/kg/injection, schedule: Q01DX001 (ip), vehicle: saline with Tween-80 92 % of control | dose: 400.0 mg/kg/injection, schedule: Q01DX001 (ip), vehicle: saline with Tween-80 92 % of control

S=C(Cc1ccccc1)NC1CCCCC1
inactive: [12] 103 % of control | dose: 200.0 mg/kg/injection, schedule: Q04DX003 (ip), vehicle: Klucel (hydroxypropylcellulose) (HPC) 101 % of control | dose: 400.0 mg/kg/injection, schedule: Q04DX003 (ip), vehicle: Klucel (hydroxypropylcellulose) (HPC) 95 % of control
